The results in this text go back to PMC6749346, “Synthesis of Isorhamnetin-3-O-Rhamnoside by a Three-Enzyme (Rhamnosyltransferase, Glycine Max Sucrose Synthase, UDP-Rhamnose Synthase) Cascade Using a UDP-Rhamnose Regeneration System” (Molecules, 2019).

The target in data set [1] is T1, rhamnosyltransferase 78D1 (Arabidopsis thaliana, UniProt Q9S9P6).
T1 construct: gene UGT78D1; codon-optimised synthetic gene in pET-28a (BamHI/EcoRI), E. coli BL21(DE3), Ni-NTA purified; theoretical monomer mass 50019 Da
T1 sequence (Q9S9P6 1-453): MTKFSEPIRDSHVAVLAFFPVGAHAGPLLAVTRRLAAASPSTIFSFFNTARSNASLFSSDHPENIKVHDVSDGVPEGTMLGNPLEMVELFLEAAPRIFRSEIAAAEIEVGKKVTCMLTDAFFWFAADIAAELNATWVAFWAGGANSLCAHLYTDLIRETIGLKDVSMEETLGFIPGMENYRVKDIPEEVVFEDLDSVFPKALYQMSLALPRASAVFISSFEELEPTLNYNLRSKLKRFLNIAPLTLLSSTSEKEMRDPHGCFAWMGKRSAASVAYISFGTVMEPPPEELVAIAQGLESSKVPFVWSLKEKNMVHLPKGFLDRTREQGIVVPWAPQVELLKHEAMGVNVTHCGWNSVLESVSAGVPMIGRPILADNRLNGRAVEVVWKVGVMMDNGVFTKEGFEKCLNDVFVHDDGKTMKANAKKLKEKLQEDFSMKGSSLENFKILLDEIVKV
The data set can be described thus: HPLC activity assay with […] UDP, […] min pre-incubation. Type of data set: biochemical. The conditions noted are these: inhibitor; UDP-rhamnose donor, 0.5 mM isorhamnetin; 50 mM phosphate pH 7.5; 35 °C.

Substrate in data set [2]: COc1cc(-c2oc3cc(O)cc(O)c3c(=O)c2O)ccc1O
In words: HPLC of isorhamnetin-3-O-rhamnoside formation, initial rates. Type of data set: biochemical, Arabidopsis thaliana. The conditions noted are these: co-substrate excess UDP-rhamnose, 50 mM phosphate pH 7.5, 35 °C.

For `O=c1ccn([C@@H]2O[C@H](COP(=O)(O)OP(=O)(O)O)[C@@H](O)[C@H]2O)c(=O)[nH]1` [UDP], in data set [1], the “% activity” value was “The enzyme activity was inhibited when the concentration of UDP was gradually increased”.

B1: rhamnosyltransferase 78D1 (Arabidopsis thaliana) (protein)
chain: T1 sequence (Q9S9P6 1-453)
notes: codon-optimised synthetic gene in pET-28a (BamHI/EcoRI), E. coli BL21(DE3), Ni-NTA purified; theoretical monomer mass 50019 Da
B1: the Michaelis constant (Km) (usually the substrate concentration at which the rate is half of its maximum) in data set [2] amounted to 181 µM.
